Measured values reported in PubChem BioAssay AID248 (DTP/NCI, 2004).
Inconclusive results and toxic doses are left out.

Tested on: L1210 leukemia ip in BDF1 mice, survival T/C
Test: NCI In Vivo Anticancer Drug Screen. Data for tumor model L1210 Leukemia (intraperitoneal) in B6D2F1 (BDF1) mice
Conditions: higher = longer survival
Summary of the method: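 Value reflects the ratio of survival in compound-treated mice to survival in vehicle-treated controls, with both groups carrying the same transplanted tumor.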

[1] = endpoint: mean survival time, dose: 100.0 mg/kg/injection, schedule: Q04DX002 (ip), vehicle: Klucel (hydroxypropylcellulose) (HPC)
[2] = endpoint: mean survival time, dose: 200.0 mg/kg/injection, schedule: Q04DX002 (ip), vehicle: Klucel (hydroxypropylcellulose) (HPC)
[3] = endpoint: mean survival time, dose: 400.0 mg/kg/injection, schedule: Q04DX002 (ip), vehicle: Klucel (hydroxypropylcellulose) (HPC)
[4] = endpoint: mean survival time, dose: 100.0 mg/kg/injection, schedule: Q01DX001 (ip), vehicle: Klucel (hydroxypropylcellulose) (HPC)
[5] = endpoint: mean survival time, dose: 100.0 mg/kg/injection, schedule: Q01DX009 (ip), vehicle: Klucel (hydroxypropylcellulose) (HPC)
[6] = endpoint: mean survival time, dose: 200.0 mg/kg/injection, schedule: Q01DX001 (ip), vehicle: Klucel (hydroxypropylcellulose) (HPC)
[7] = endpoint: mean survival time, dose: 400.0 mg/kg/injection, schedule: Q01DX001 (ip), vehicle: Klucel (hydroxypropylcellulose) (HPC)
[8] = endpoint: mean survival time, dose: 100.0 mg/kg/injection, schedule: Q04DX003 (ip), vehicle: saline with Tween-80
[9] = endpoint: mean survival time, dose: 100.0 mg/kg/injection, schedule: Q04DX003 (ip), vehicle: Klucel (hydroxypropylcellulose) (HPC)
[10] = endpoint: mean survival time, dose: 200.0 mg/kg/injection, schedule: Q04DX003 (ip), vehicle: Klucel (hydroxypropylcellulose) (HPC)
[11] = endpoint: mean survival time, dose: 400.0 mg/kg/injection, schedule: Q04DX003 (ip), vehicle: Klucel (hydroxypropylcellulose) (HPC)
[12] = endpoint: mean survival time, dose: 100.0 mg/kg/injection, schedule: Q01DX001 (ip), vehicle: saline
[13] = endpoint: mean survival time, dose: 200.0 mg/kg/injection, schedule: Q01DX001 (ip), vehicle: saline
[14] = endpoint: mean survival time, dose: 400.0 mg/kg/injection, schedule: Q01DX001 (ip), vehicle: saline

SMILES: COC(OC)c1[nH]c(=S)[nH]c(=O)c1Cc1ccc(Br)cc1
- T/C [1]: 97 % of control
- T/C [2]: 94 % of control
- T/C [3]: 105 % of control

SMILES: CSc1nccc(NN=C2CCCCC2)n1
- T/C [4]: 98 % of control
- T/C [5]: 96 % of control
- T/C [6]: 94 % of control
- T/C (endpoint: mean survival time, dose: 200.0 mg/kg/injection, schedule: Q01DX009 (ip), vehicle: Klucel (hydroxypropylcellulose) (HPC)): 98 % of control
- T/C [7]: 91 % of control

SMILES: Nc1ccn(C2OC(COP(=O)(O)O)C(O)C2O)c(=O)n1 (stereo unspecified)
- T/C (endpoint: mean survival time, dose: 2.5 mg/kg/injection, schedule: Q01DX009 (ip), vehicle: other): 108 % of control
- T/C (endpoint: mean survival time, dose: 5.0 mg/kg/injection, schedule: Q01DX009 (ip), vehicle: other): 96 % of control
- T/C (endpoint: mean survival time, dose: 10.0 mg/kg/injection, schedule: Q01DX009 (ip), vehicle: other): 116 % of control
- T/C (endpoint: mean survival time, dose: 18.0 mg/kg/injection, schedule: Q01DX Z (ip), vehicle: saline): 193 % of control
- T/C (endpoint: mean survival time, dose: 26.5 mg/kg/injection, schedule: Q01DX Z (ip), vehicle: saline): 195 % of control
- T/C (endpoint: mean survival time, dose: 40.0 mg/kg/injection, schedule: Q01DX Z (ip), vehicle: saline): 218 % of control
- T/C (endpoint: mean survival time, dose: 60.0 mg/kg/injection, schedule: Q01DX Z (ip), vehicle: saline): 157 % of control
- T/C (endpoint: median survival time, dose: 22.0 mg/kg/injection, schedule: Q01DX009 (ip), vehicle: sodium bicarbonate): 171 % of control
- T/C (endpoint: median survival time, dose: 33.0 mg/kg/injection, schedule: Q01DX009 (ip), vehicle: sodium bicarbonate): 177 % of control
- T/C (endpoint: median survival time, dose: 46.0 mg/kg/injection, schedule: Q01DX009 (ip), vehicle: sodium bicarbonate): 177 % of control
- T/C (endpoint: median survival time, dose: 66.0 mg/kg/injection, schedule: Q01DX009 (ip), vehicle: sodium bicarbonate): 181 % of control

SMILES: [O-][N+](=Nc1ccc2c(c1)Cc1ccccc1-2)c1ccc2c(c1)Cc1ccccc1-2
- T/C [8]: 96 % of control
- T/C (endpoint: mean survival time, dose: 200.0 mg/kg/injection, schedule: Q04DX003 (ip), vehicle: saline with Tween-80): 92 % of control
- T/C (endpoint: mean survival time, dose: 400.0 mg/kg/injection, schedule: Q04DX003 (ip), vehicle: saline with Tween-80): 91 % of control

SMILES: CC1(C)CS(=O)(=O)CC1=O
- T/C (endpoint: mean survival time, dose: 3.0 mg/kg/injection, schedule: Q01DX009 (ip), vehicle: other): 103 % of control
- T/C (endpoint: mean survival time, dose: 6.0 mg/kg/injection, schedule: Q01DX009 (ip), vehicle: other): 102 % of control
- T/C (endpoint: mean survival time, dose: 12.0 mg/kg/injection, schedule: Q01DX009 (ip), vehicle: other): 94 % of control
- T/C (endpoint: mean survival time, dose: 12.0 mg/kg/injection, schedule: Q04DX003 (ip), vehicle: saline): 98 % of control
- T/C (endpoint: mean survival time, dose: 25.0 mg/kg/injection, schedule: Q01DX009 (ip), vehicle: other): 100 % of control
- T/C (endpoint: mean survival time, dose: 25.0 mg/kg/injection, schedule: Q04DX003 (ip), vehicle: saline): 101 % of control
- T/C (endpoint: mean survival time, dose: 50.0 mg/kg/injection, schedule: Q01DX009 (ip), vehicle: other): 96 % of control
- T/C (endpoint: mean survival time, dose: 50.0 mg/kg/injection, schedule: Q04DX003 (ip), vehicle: saline): 106 % of control

SMILES: CC1CCC(NC2=NCCO2)C(C)C1 (stereo unspecified)
- T/C [8]: 91 % of control

SMILES: ClCC1COC(CCc2ccccc2)O1 (stereo unspecified)
- T/C (endpoint: mean survival time, dose: 222.0 mg/kg/injection, schedule: Q01DX Z (ip), vehicle: saline): 95 % of control
- T/C (endpoint: mean survival time, dose: 333.0 mg/kg/injection, schedule: Q01DX Z (ip), vehicle: saline): 95 % of control
- T/C (endpoint: mean survival time, dose: 500.0 mg/kg/injection, schedule: Q01DX Z (ip), vehicle: saline): 113 % of control

SMILES: CCN(CC)Cc1cc(Nc2c3ccc(Cl)cc3nc3ccc(OC)cc23)ccc1O
- T/C [1]: 105 % of control
- T/C [2]: 112 % of control
- T/C [3]: 108 % of control

SMILES: OC(c1ccccc1)c1nnc(C(O)c2ccccc2)nn1 (stereo unspecified)
- T/C [4]: 92 % of control
- T/C [9]: 94 % of control
- T/C [6]: 95 % of control
- T/C [10]: 93 % of control
- T/C [7]: 95 % of control
- T/C [11]: 100 % of control

SMILES: O=c1[nH]cc(CSC(=S)Nc2ccc(Cl)c(Cl)c2)c(=O)[nH]1
- T/C (endpoint: mean survival time, dose: 15.0 mg/kg/injection, schedule: Q04DX003 (ip), vehicle: saline with Tween-80): 104 % of control
- T/C (endpoint: mean survival time, dose: 30.0 mg/kg/injection, schedule: Q04DX003 (ip), vehicle: saline with Tween-80): 101 % of control
- T/C (endpoint: mean survival time, dose: 60.0 mg/kg/injection, schedule: Q04DX003 (ip), vehicle: saline with Tween-80): 104 % of control

SMILES: O=[N+]([O-])c1ccc(-c2cccc(Cl)c2)c([N+](=O)[O-])c1
- T/C (endpoint: mean survival time, dose: 100.0 mg/kg/injection, schedule: Q01DX001 (ip), vehicle: carboxymethylcellulose (CMC)): 91 % of control
- T/C (endpoint: mean survival time, dose: 200.0 mg/kg/injection, schedule: Q01DX001 (ip), vehicle: carboxymethylcellulose (CMC)): 91 % of control
- T/C (endpoint: mean survival time, dose: 400.0 mg/kg/injection, schedule: Q01DX001 (ip), vehicle: carboxymethylcellulose (CMC)): 95 % of control

SMILES: CCCN=C(C)c1ccccc1O
- T/C (endpoint: mean survival time, dose: 100.0 mg/kg/injection, schedule: Q04DX003 (ip), vehicle: acetone): 97 % of control
- T/C (endpoint: mean survival time, dose: 200.0 mg/kg/injection, schedule: Q04DX003 (ip), vehicle: acetone): 95 % of control

SMILES: OCCCCOc1ccccc1
- T/C [12]: 105 % of control
- T/C [13]: 100 % of control
- T/C [14]: 96 % of control

SMILES: CC(C)(Cc1c[nH]c2ccccc12)NC(=O)c1ccccc1
- T/C [5]: 90 % of control
- T/C [9]: 100 % of control
- T/C [10]: 98 % of control
- T/C (endpoint: mean survival time, dose: 400.0 mg/kg/injection, schedule: Q01DX009 (ip), vehicle: Klucel (hydroxypropylcellulose) (HPC)): 92 % of control
- T/C [11]: 98 % of control

SMILES: COC(=O)c1c2ccccc2nc2c1c(C)c(C)c1ccccc12
- T/C [9]: 96 % of control
- T/C [10]: 110 % of control
- T/C [11]: 101 % of control

SMILES: C=C(C)C[N+]1(CC)CCN=C1CCCCCCCCCCCCCCCCC (stereo unspecified)
- T/C (endpoint: mean survival time, dose: 0.31 mg/kg/injection, schedule: Q01DX Z (ip), vehicle: saline): 100 % of control
- T/C (endpoint: mean survival time, dose: 0.47 mg/kg/injection, schedule: Q01DX Z (ip), vehicle: saline): 96 % of control
- T/C (endpoint: mean survival time, dose: 0.7 mg/kg/injection, schedule: Q01DX Z (ip), vehicle: saline): 102 % of control
- T/C (endpoint: mean survival time, dose: 1.05 mg/kg/injection, schedule: Q01DX Z (ip), vehicle: saline): 96 % of control

SMILES: COc1ccc(C(=O)OC(c2ccccc2)c2ccccc2)cc1
- T/C [12]: 98 % of control
- T/C [13]: 100 % of control
- T/C [14]: 89 % of control

SMILES: O=c1c[n+](Cc2ccc(Cl)cc2)[nH]o1
- T/C (endpoint: mean survival time, dose: 100.0 mg/kg/injection, schedule: Q01DX Z (ip), vehicle: saline): 100 % of control
- T/C (endpoint: mean survival time, dose: 200.0 mg/kg/injection, schedule: Q01DX Z (ip), vehicle: saline): 100 % of control
